The target of series [1] is T1, DYRK1A (Homo sapiens, UniProt Q13627). The following applies: read-out: DYRK1A IC50, published values, ref Adayev et al., 2011, Bain et al., 2007, Bálint et al., 2017, Bruel et al., 2014, Foucourt et al., Göckler et al., 2009, Grabher et al., 2012, Kim et al., 2016, Kumar et al., 2018, Liu et al., 2017b, PubChem; cited from earlier work.
Series [2] has as its system U87 cells. The series is described as follows: High content imaging assay. It counts as cell-based, human. The following applies: 72 h; for U87 (nuclear count) % inhibition at highest dose tested: Hoechst 33342 high content imaging, highest dose tested (66 μM); for inhibition at 66 µM: read-out: U87 (nuclear count) % inhibition at highest dose tested.
In series [3] the test system is U87 cells. The series is described as follows: PrestoBlue cell proliferation/viability assay. It counts as cell-based, human. The following applies: 72 h; for U87 (cell proliferation) % inhibition at highest dose tested: PrestoBlue.
Series [4] has as its target T2, DYRK2 (Homo sapiens, UniProt Q92630).
T2 sequence (Q92630 1-601): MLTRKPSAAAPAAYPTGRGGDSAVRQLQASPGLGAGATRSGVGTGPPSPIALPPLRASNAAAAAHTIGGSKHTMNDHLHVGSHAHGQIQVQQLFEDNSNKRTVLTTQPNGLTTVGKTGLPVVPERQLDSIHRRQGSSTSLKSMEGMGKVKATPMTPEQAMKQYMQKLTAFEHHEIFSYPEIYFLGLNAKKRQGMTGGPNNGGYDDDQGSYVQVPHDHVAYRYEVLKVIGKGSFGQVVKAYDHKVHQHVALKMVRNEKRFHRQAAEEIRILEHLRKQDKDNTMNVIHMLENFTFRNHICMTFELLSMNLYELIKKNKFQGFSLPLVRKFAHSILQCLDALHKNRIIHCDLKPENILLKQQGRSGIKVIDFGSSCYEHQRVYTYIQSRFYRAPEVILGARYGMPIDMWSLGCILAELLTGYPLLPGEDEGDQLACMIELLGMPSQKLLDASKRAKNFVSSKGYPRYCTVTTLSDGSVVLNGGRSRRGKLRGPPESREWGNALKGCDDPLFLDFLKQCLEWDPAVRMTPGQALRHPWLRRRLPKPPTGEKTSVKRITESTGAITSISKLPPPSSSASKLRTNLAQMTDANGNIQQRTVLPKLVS
The series is described as follows: Kinase selectivity panel. The following applies: 10 μM, n = 2.

Series [5] addresses T1, DYRK1A. The series is described as follows: biochemical. The series is classed as biochemical.
The target of series [6] is T3, Monoamine oxidase-A (MAO-A) (Homo sapiens, UniProt P21397).
T3 sequence (P21397 1-527): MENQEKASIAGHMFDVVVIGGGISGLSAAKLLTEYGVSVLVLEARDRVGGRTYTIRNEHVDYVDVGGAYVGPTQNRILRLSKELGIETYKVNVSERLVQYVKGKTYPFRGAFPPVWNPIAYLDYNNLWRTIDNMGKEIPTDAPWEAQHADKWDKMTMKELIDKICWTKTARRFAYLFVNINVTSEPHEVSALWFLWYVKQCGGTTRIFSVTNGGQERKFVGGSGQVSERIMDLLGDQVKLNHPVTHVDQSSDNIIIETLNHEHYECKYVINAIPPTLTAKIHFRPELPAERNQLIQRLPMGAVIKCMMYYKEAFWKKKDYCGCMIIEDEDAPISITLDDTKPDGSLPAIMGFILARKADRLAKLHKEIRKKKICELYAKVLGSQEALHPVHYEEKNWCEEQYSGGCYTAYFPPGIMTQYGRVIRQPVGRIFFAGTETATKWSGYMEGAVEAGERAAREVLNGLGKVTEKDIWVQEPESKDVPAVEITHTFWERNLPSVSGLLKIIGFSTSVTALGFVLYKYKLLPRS
Briefly: biochemical. The series is classed as biochemical.

Series [7] concerns H4 cells. Briefly: PrestoBlue cell proliferation/viability assay. The series is classed as cell-based, human. The following applies: 72 h; for IC50: Homo sapiens, read-out: H4 (cell proliferation) IC50.
For series [8], the system named is H4 cells. Briefly: High content imaging assay. The series is classed as cell-based, human. The following applies: read-out: H4 (nuclear count) IC50, 72 h.
In series [9] the target is T1, DYRK1A. The series is described as follows: biochemical. It counts as binding. The following applies: for IC50: 10-point 2-fold dose response; for inhibition at 6.7 µM: read-out: DYRK1A inhibition in pilot HTS.
Series [10] relates to MAO-A. The following applies: read-out: MAO-A IC50, published, ref Bálint et al., 2017, Clarke and Ramsay, 2011, Herraiz and Brandt, 2014, Herraiz and Chaparro, 2005, Ionescu et al., 2012, Kim et al., 1997, Rahman and Rahmatullah, 2010, Reniers et al., Rommelspacher et al., 1994, Rüben et al., 2015, Santillo et al., Wurzlbauer et al., 2020; cited from earlier work.
Series [11] concerns the target T4, CLK1 (Homo sapiens, UniProt P49759). Briefly: InCELL Hunter / PathHunter in-cell target engagement assay. The series is classed as cell-based.
The target of series [12] is DYRK1B (Homo sapiens, UniProt Q9Y463). The series is described as follows: Kinase selectivity panel. It counts as biochemical. The following applies: 10 μM, n = 2.
Sequence of DYRK1B (Q9Y463 whole entry): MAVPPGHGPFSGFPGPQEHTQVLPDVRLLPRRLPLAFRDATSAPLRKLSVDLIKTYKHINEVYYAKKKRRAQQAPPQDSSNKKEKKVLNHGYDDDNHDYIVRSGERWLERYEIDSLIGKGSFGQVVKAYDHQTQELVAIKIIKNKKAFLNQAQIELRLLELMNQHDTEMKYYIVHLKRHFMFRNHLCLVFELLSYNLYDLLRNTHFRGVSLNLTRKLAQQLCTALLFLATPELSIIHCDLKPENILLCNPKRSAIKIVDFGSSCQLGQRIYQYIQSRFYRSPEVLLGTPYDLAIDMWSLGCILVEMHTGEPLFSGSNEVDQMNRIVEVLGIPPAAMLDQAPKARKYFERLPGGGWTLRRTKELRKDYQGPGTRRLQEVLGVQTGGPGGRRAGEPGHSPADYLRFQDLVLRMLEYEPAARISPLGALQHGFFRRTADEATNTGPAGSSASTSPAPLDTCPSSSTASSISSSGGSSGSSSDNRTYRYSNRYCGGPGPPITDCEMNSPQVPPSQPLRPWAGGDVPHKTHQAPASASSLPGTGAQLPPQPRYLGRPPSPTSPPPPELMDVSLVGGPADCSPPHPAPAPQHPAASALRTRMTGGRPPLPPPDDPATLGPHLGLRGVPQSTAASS
In series [13] the target is T4, CLK1. Briefly: Kinase selectivity panel. The series is classed as biochemical. The following applies: 10 μM, n = 2.
The target of series [14] is T1, DYRK1A. The series is described as follows: Kinase selectivity panel. The following applies: 10 μM, n = 2. The series is classed as biochemical.
Series [15] concerns the target PIM1 (Homo sapiens, UniProt P11309). Briefly: Kinase selectivity panel. The following applies: 10 μM, n = 2.
Series [16] relates to U87 human glioblastoma cells. The series is described as follows: U87 glioma tumor xenograft in nude NU/J mice. It counts as in vivo.
Series [17] concerns the target CK1α1 (Homo sapiens, UniProt P48729). Briefly: Kinase selectivity panel. The following applies: 10 μM, n = 2.
The mark [18] stands for this setting: using TR-FRET DYRK1A IC50 values.

Where “and” joins values, the source holds several entries; their conditions need not be identical. Equal entries are not always repeated. Where two headings read alike, the source gives them in different places. Marks after values point to notes of the source that are not given here. Where only a bound is given, the exact number is not on record here.

The values below come from article PMC8404221 (European journal of pharmaceutical sciences : official …, 2021).

Broadly, the EC50 is the concentration that produces a half-maximal response. By inhibition is commonly meant the change of the read-out against control, counted positive when it falls.

T4 sequence (P49759 whole entry): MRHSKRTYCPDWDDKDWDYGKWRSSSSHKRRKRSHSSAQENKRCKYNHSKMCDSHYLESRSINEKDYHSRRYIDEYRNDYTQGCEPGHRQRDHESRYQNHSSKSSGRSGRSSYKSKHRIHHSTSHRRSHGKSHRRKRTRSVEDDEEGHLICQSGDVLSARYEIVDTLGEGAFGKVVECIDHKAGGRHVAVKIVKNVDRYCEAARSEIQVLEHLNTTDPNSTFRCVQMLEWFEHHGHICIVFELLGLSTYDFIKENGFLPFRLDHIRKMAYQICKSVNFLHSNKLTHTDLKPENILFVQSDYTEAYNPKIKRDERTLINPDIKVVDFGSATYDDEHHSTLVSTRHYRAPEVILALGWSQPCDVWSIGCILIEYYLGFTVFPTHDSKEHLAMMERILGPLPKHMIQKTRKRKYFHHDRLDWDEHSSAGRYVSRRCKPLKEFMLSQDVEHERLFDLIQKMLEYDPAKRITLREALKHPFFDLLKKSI
Sequence of CK1α1 (P48729 whole entry): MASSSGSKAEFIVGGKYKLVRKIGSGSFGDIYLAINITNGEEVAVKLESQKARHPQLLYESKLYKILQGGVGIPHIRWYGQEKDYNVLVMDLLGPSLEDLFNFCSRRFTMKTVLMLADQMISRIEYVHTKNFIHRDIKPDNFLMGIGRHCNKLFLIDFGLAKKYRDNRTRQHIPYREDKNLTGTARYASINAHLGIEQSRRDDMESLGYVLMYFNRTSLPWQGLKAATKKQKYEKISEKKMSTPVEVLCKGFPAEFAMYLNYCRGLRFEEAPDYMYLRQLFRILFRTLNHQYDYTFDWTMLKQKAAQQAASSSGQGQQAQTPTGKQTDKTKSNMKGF
Sequence of PIM1 (P11309 whole entry): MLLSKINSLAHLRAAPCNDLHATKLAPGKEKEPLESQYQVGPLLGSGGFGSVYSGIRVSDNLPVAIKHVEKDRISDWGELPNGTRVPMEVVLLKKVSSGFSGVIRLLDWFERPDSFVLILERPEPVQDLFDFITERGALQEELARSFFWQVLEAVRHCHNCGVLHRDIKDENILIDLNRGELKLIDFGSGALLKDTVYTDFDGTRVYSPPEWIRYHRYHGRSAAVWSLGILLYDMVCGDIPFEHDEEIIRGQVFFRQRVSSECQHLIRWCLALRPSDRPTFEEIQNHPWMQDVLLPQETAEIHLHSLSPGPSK

For `COc1ccc2c3c([nH]c2c1)[C@@H](C)NCC3` [Tetrahydroharmine, tetrahydroharmine], the IC50 was 2.99 µM in series [1]; 6.42 µM in series [5] (read-out: DYRK1A IC50, 33P-ATP, casein substrate, ATP 10 μM, data generated by Reaction Biology); 1.52 µM in [6] (read-out: MAO-A IC50, MAO-A Glo); 26.9 µM in [8] (Hoechst 33342 high content imaging); 9.41 µM in series [9] (read-out: DYRK1A IC50, TR-FRET); 9.4 µM in series [9] (read-out: DYRK1A IC50, TR-FRET, listed as tetrahydroharmine). In series [2], the “U87 (nuclear count) % inhibition at highest dose tested” value was around 50% ^c. Also, the “U87 (cell proliferation) % inhibition at highest dose tested” value (shortened to “U87 (cell proliferation) % inhibition”) in series [3] is “No inhibition ^c”. Moreover, the “Reduction in enzyme activity, DYRK2” value in series [4] was “minimal effect”. Besides, the “DYRK1A:MAO-A (IC50 ratio)” value in [6] (setting [18]) was 6.2. Further, in series [7] (PrestoBlue, highest dose tested), the “H4 (cell proliferation) % inhibition at highest dose tested” value is reported as 38%^c.
In the case of `CN[C@@H]1C[C@H]2O[C@@](C)([C@@H]1OC)n1c3ccccc3c3c4c(c5c6ccccc6n2c5c31)C(=O)NC4` [Staurosporine, reference compound], in [6], the “MAO-A IC50, MAO-A Glo” value is given as “No inhibition”.
Regarding `c1ccc2c(c1)[nH]c1cnccc12` [Norharmane, norharmane], the IC50 in series [1] is 8.75 µM; in series [5], 3.19 µM; in series [10], […]; in series [7], above 25 µM; in [8] (Homo sapiens), 29.1 µM; in series [9] (DYRK1A IC50, TR-FRET), 5.46 µM. For the same molecule, in series [2], the “U87 (nuclear count) % inhibition at highest dose tested” value is listed as “No inhibition ^c”. Also, the “U87 (cell proliferation) % inhibition” value in series [3] was “No inhibition ^c”.
For the molecule `COC(=O)[C@@]1(O)C[C@H]2O[C@]1(C)n1c3ccccc3c3c4c(c5c6ccccc6n2c5c31)C(=O)NC4` [K252a], the EC50 in series [11] (read-out: CLK1 cellular target engagement EC50, positive control inhibitor) was 0.0087 µM.
For the molecule `CC1=NCCc2c1[nH]c1cc(O)ccc21` [Harmalol, harmalol], in series [2] (Homo sapiens, U-87 MG), the inhibition at 66 µM is below 50%. Moreover, in series [3], the “U87 (cell proliferation) % inhibition” value amounted to 37% ^c. For the same molecule, the IC50 in series [5] was 0.18 µM; in series [6] (MAO-A IC50, MAO-A Glo), 0.66 µM; in series [10] it was 0.153 µM; in series [7] it was 23.7 µM; in series [8] (Homo sapiens) it was 25.2 µM; in series [9] (DYRK1A IC50, TR-FRET), 0.63 µM. The “DYRK1A:MAO-A (IC50 ratio)” value in [6] is listed as 1.0. Moreover, the “Reduction in enzyme activity, DYRK1B” value in series [12] is recorded as around 100%. Besides, the “Reduction in enzyme activity, CLK1” value in [13] was around 100%. Besides, in series [14], the “Reduction in enzyme activity, DYRK1A (panel)” value is recorded as around 100%. For the same molecule, the “Fold lower activity against DYRK1A than harmol” value in [9] was ~ 6 fold. Besides, in [9], the inhibition at 6.7 µM came out at 79%.
As to `Cc1nccc2c1[nH]c1ccccc12` [Harmane, harmane], the IC50 in series [1] is 1.82 µM; in series [5], 1 µM; in series [6] (MAO-A IC50, MAO-A Glo), 0.64 µM; in series [10], 0.029 to 0.337 µM; in series [7], above 25 µM; in series [8] (Homo sapiens), 17.1 µM. Moreover, the IC50 in series [9] (DYRK1A IC50, TR-FRET) came to 2.68 µM. The inhibition at 66 µM in [2] (Homo sapiens, U-87 MG) is around 50%. The “U87 (cell proliferation) % inhibition” value in series [3] came out at 30% ^c. For the same molecule, in [6] (setting [18]), the “DYRK1A:MAO-A (IC50 ratio)” value was 4.2. Also, the inhibition at 6.7 µM in [9] is 71%.
On to `COc1ccc2c(c1)[nH]c1c(C)nccc12` [Harmine, harmine, reference compound], for which, in series [11] (0.5, 5 and 50 μM), the “Effect on β-gal activity (CLK1 target engagement)” value is listed as “increase in β-gal activity”. The IC50 in series [2] (Homo sapiens, U-87 MG, read-out: U87 (nuclear count) IC50) was 17.6 µM; in series [3] (Homo sapiens, U-87 MG, read-out: U87 (cell proliferation) IC50) it was above 25 µM; in [10] it was 0.003 to 0.107 µM; in series [7] it was 4.9 µM; in series [8] (Homo sapiens), 14.9 µM. In [15], the “Reduction in enzyme activity, PIM1” value is recorded as at least 70%. The Tumor inhibition rate in series [16] (15 mg/kg i.p. q.d.) is 16.5%. For the same molecule, in [16] (15 mg/kg i.p. q.d., up to 21 days), the “Effect on body weight” value is “did not lead to significant differences in body weight”. Also, in [16] (anecdotal observation, duration of the study), the “Tremor activity in treated mice” value was “no tremor activity”. Besides, the “Reduction in enzyme activity, CK1α1” value in series [17] is on record as at least 70%. In addition, in series [9], the inhibition at 6.7 µM was 74%.
Regarding `COc1ccc2c3c([nH]c2c1)C(C)=NCC3` [Harmaline, harmaline], the IC50 in series [1] was 1.24 to 4.59 µM; in series [5], 0.79 µM; in [6] (MAO-A IC50, MAO-A Glo) it was 0.09 µM; in series [6] (MAO-A IC50, MAO-Glo), 0.06 to 0.09 µM; in series [10], 0.005 to 0.02 µM; in series [7], 19.6 µM. Besides, the IC50 in series [8] (Homo sapiens) amounted to 14.9 µM; in series [9] (DYRK1A IC50, TR-FRET), 2.35 µM. The inhibition at 66 µM in [2] (Homo sapiens, U-87 MG) is around 66%. The “U87 (cell proliferation) % inhibition” value in [3] was 14% ^c. Besides, in [6] (DYRK1A TR-FRET vs MAO-A), the “Fold more potent on MAO-A over DYRK1A” value is ~ 25 fold and ~ 30 fold. In addition, in series [6] (setting [18]), the “DYRK1A:MAO-A (IC50 ratio)” value came to 26.1. Besides, the inhibition at 6.7 µM in series [9] worked out at 81%.
